# Measured values: article PMC7099625, “Exploration of thiaheterocyclic hHDAC6 inhibitors as potential antiplasmodial agents” (Future Medicinal Chemistry, 2017)
# Read-outs that look alike come from different tables or passages of the source.
# Assays:
# P. falciparum (NF54) = assay: Antiplasmodial parasite lactate dehydrogenase assay, chloroquine-sensitive strain NF54; type: cell-based, Plasmodium falciparum; conditions: read-out: IC50 NF54
# Description: (§1) Continuous in vitro cultures of asexual erythrocyte stages of P. falciparum were maintained using a modified method of Trager and Jensen. Quantitative assessment of antiplasmodial activity in vitro was determined via the parasite lactate dehydrogenase assay using a modified method described by Makler. The test samples were prepared to a 20 mg/ml stock solution in 100% DMSO. Stock solutions were stored at -20°C. Further dilutions were prepared in complete medium on the day of the experiment. CQ and artesunate were used as the reference drugs. A full dose–response was performed to determine the concentration inhibiting 50% of parasite growth (IC50 value). Test samples were tested at a starting concentration of 100 μg/ml, which was then serially diluted twofold in complete medium to give 10 concentrations; with the lowest concentration being 0.2 μg/ml. The same dilution technique was used for all samples. References were tested at a starting concentration of 1 μg/ml.
# (§2) The antiplasmodial activity of this set of structures was first determined through a modified parasite lactate dehydrogenase assay against a CQ-sensitive (CQS) strain of P. falciparum (NF54). […] Finally, a selectivity index (SI = IC50 CHO/IC50 NF54) and a resistance index (RI = IC50 Dd2/IC50 NF54) was calculated to be able to easily compare the therapeutic window (active concentration vs toxic concentration) and sensitivity toward resistance developing.
# hHDAC6 = system: hHDAC6; parameters: method as in PMID 23538448, PMID 25994553, PMID 26822143, PMID 27717044; conditions: hHDAC6 inhibition, previously described; read-out: IC50 HDAC6; cited from earlier work
# P. falciparum (Dd2) = assay: Antiplasmodial parasite lactate dehydrogenase assay, chloroquine-resistant strain Dd2; type: cell-based, Plasmodium falciparum; conditions: read-out: IC50 Dd2
# Description: as §1, §2
# [1] = system: Chinese Hamster Ovary (CHO) cells; assay: MTT in vitro cytotoxicity assay; type: cell-based; conditions: triplicate on one occasion
# Description: Test samples were screened for in vitro cytotoxicity against a mammalian cell-line, Chinese Hamster Ovary (CHO), using the 3-(4,5-dimethylthiazol-2-yl)-2,5-diphenyltetrazoliumbromide (MTT)-assay. The MTT-assay is used as a colorimetric assay for cellular growth and survival, and compares well with other available assays. The tetrazolium salt MTT was used to measure all growth and chemosensitivity. The test samples were tested in triplicate on one occasion. The same stock solutions prepared for antiplasmodial evaluation were used for cytotoxicity testing. Test compounds were stored at -20°C until use. Dilutions were prepared on the day of the experiment. Emetine was used as the reference drug in all experiments. The starting concentration was 100 μg/ml, which was serially diluted in complete medium with tenfold dilutions to give six concentrations, the lowest being 0.001 μg/ml. […] The IC50 values were obtained from full dose–response curves, using a nonlinear dose–response curve fitting analysis via GraphPad Prism v.4 software. […]
# [2] = chloroquine-sensitive (CQS) P. falciparum strain NF54, asexual erythrocyte stages, pLDH assay
# [3] = chloroquine-resistant (CQR) P. falciparum strain Dd2, asexual erythrocyte stages, pLDH assay
IC50 (P. falciparum (NF54); [2]) [nM],IC50 (P. falciparum (Dd2); [3]) [nM],Compound,IC50 (hHDAC6) [nM],IC50 [1] [nM],further results
8130,–,O=C(NO)c1cccc(Cn2c3c(c4cc(-c5ccccc5)ccc42)CS(=O)(=O)CC3)c1 [Compound 1r],–,–,–
21000,–,COc1cc(C(=O)NO)ccc1Cn1c2c(c3ccccc31)CS(=O)(=O)CC2 [Compound 1f],2000,–,–
1480,2180,O=C(NO)c1cccc(Cn2c3c(c4ccccc42)CSCC3)c1 [Compound 1n],–,> 295000,–
> 2480,1570,O=C(NO)c1ccc(CN2c3cc(Cl)ccc3SCC3CCCC32)cc1 (racemic) [Compound 3i],160,50900,–
23200,–,COc1cc(C(=O)NO)ccc1Cn1c2c(c3cc(F)ccc31)CSCC2 [Compound 1d],–,–,–
> 2610,> 2610,O=C(NO)c1ccc(CN2c3ccccc3SCC3CCCCC32)cc1 (stereo not shown) [Compound 3h],33,87000,–
10800,–,O=C(NO)c1ccc(Cn2c3c(c4ccccc42)CS(=O)(=O)CC3)cc1 [Compound 1e],2,–,–
3340,1140,O=C(NO)c1ccc(NCc2csc3cc(-c4ccccc4)ccc23)cc1 [Compound 2i],–,31200,–
1590,> 2700,O=C(NO)c1ccc(CN2c3ccccc3SCC3CCCC32)cc1 (stereo not shown) [Compound 3a],36,104000,–
> 2610,> 2610,O=C(NO)c1ccc(CN2c3ccccc3SCC3CCCCC32)cc1 (stereo not shown) [Compound 3j],92,61700,–
–,–,"CCN(CC)CCCC(C)Nc1ccnc2cc(Cl)ccc12 (stereo not shown) [Chloroquine, chloroquine, reference compound]",–,–,"IC50 (P. falciparum (NF54); Plasmodium falciparum, NF54, Erythrocyte): 10 nM; IC50 (P. falciparum (Dd2); Plasmodium falciparum, DD2, Erythrocyte): 175 nM"
5750,–,O=C(NO)c1ccc(N(Cc2ccccc2)Cc2csc3ccc(-c4ccccc4)cc23)cc1 [Compound 2f],–,–,–
1250,> 2600,O=C(NO)c1ccc(CN2c3ccccc3[S+]([O-])CC3CCCC32)cc1 (stereo not shown) [Compound 3g],6,173000,–
–,–,O=C(NO)c1ccc(Cn2c3c(c4cc(Br)ccc42)CS(=O)(=O)CC3)cc1 [Compound 1i],–,109000,–
17800,–,O=C(NO)c1ccc(N(Cc2ccccc2)Cc2csc3ccc(Br)cc23)cc1 [Compound 2d],–,–,–
–,940,O=C(NO)c1ccc(CN2c3ccccc3S(=O)(=O)CC3CCCC32)cc1 (stereo not shown) [Compound 3d],–,108000,–
5450,–,O=C(NO)c1cccc(Cn2c3c(c4ccccc42)CS(=O)(=O)CC3)c1 [Compound 1p],–,–,–
14000,–,COc1cc(C(=O)NO)ccc1Cn1c2c(c3ccccc31)CSCC2 [Compound 1b],–,–,–
8450,–,O=C(NO)c1ccc(N(Cc2ccccc2)Cc2csc3cc(Br)ccc23)cc1 [Compound 2h],–,–,–
–,–,"CC[C@H]1CN2CCc3cc(OC)c(OC)cc3[C@@H]2C[C@@H]1C[C@H]1NCCc2cc(OC)c(OC)cc21 [Emetine, reference compound]",–,–,IC50 ([1]; Cricetulus griseus): 112 nM

IC50 (P. falciparum (NF54); [2]) [nM],IC50 (P. falciparum (Dd2); [3]) [nM],Compound,IC50 (hHDAC6) [nM],IC50 [1] [nM],further results
–,–,"C[C@H]1[C@H](OC(=O)CCC(=O)O)O[C@@H]2O[C@@]3(C)CC[C@H]4[C@H](C)CC[C@@H]1[C@@]24OO3 [Artesunate, artesunate, reference compound]",–,–,"IC50 (P. falciparum (NF54); Plasmodium falciparum, chloroquine-sensitive (CQS) P. falciparum strain NF54, asexual erythrocyte stages, pLDH assay): < 10 nM; IC50 (P. falciparum (Dd2); Plasmodium falciparum, chloroquine-resistant (CQR) P. falciparum strain Dd2, asexual erythrocyte stages, pLDH assay): 16 nM"
15800,–,O=C(NO)c1ccc(Cn2c3c(c4cc(F)ccc42)CS(=O)(=O)CC3)cc1 [Compound 1g],4,–,–
870,700,O=C(NO)c1ccc(CN2c3cc(C(F)(F)F)ccc3S(=O)(=O)CC3CCCC32)cc1 (racemic) [Compound 3f],–,56800,–
> 2480,> 2480,O=C(NO)c1ccc(CN2c3cc(Cl)ccc3SCC3CCCC32)cc1 (racemic) [Compound 3b],650,41400,–
1530,> 2290,O=C(NO)c1ccc(CN2c3cc(C(F)(F)F)ccc3SCC3CCCC32)cc1 (racemic) [Compound 3c],200,61500,–
2200,3100,O=C(NO)c1ccc(Cn2c3c(c4cc(F)ccc42)CSCC3)cc1 [Compound 1c],22,105000,–
–,–,O=C(NO)c1ccc(CN2c3cc(Cl)ccc3S(=O)(=O)CC3CCCC32)cc1 (racemic) [Compound 3e],68,35400,–
–,800,O=C(NO)c1ccc(Cn2c3c(c4cc(F)ccc42)C[S+]([O-])CC3)cc1 (racemic) [Compound 1k],–,> 269000,–
37500,–,O=C(NO)c1ccc(Cn2c3c(c4ccccc42)CSCC3)cc1 [Compound 1a],15,–,–
5070,–,O=C(NO)c1ccc(NCc2csc3ccc(-c4ccccc4)cc23)cc1 [Compound 2e],–,–,–
1020,2400,O=C(NO)c1ccc(NCc2csc3ccc(Br)cc23)cc1 [Compound 2c],37,31000,–
32400,–,O=C(NO)c1ccc(N(Cc2ccccc2)Cc2csc3ccccc23)cc1 [Compound 2b],–,–,–
32700,–,COc1cc(C(=O)NO)ccc1Cn1c2c(c3cc(F)ccc31)CS(=O)(=O)CC2 [Compound 1h],1300,–,–
1320,1440,O=C(NO)c1cccc(Cn2c3c(c4cc(F)ccc42)CSCC3)c1 [Compound 1o],–,48100,–
1280,1300,O=C(NO)c1ccc(Cn2c3c(c4ccccc42)C[S+]([O-])CC3)cc1 (racemic) [Compound 1j],14,> 282000,–
36800,–,Cc1cc(C(=O)NO)ccc1NCc1csc2ccccc12 [Compound 2k],–,–,–
7840,–,O=C(NO)c1cccc(Cn2c3c(c4cc(F)ccc42)CS(=O)(=O)CC3)c1 [Compound 1q],–,–,–
1300,1580,O=C(NO)c1ccc(NCc2csc3cc(Br)ccc23)cc1 [Compound 2g],64,46100,–
5020,–,O=C(NO)c1ccc(N(Cc2ccccc2)Cc2csc3cc(-c4ccccc4)ccc23)cc1 [Compound 2j],–,–,–
1600,2130,O=C(NO)c1ccc(NCc2csc3ccccc23)cc1 [Compound 2a],14,12700,–
